What all share (assay): biochemical
Experiment [1] deals with Adenosine receptor A2a (Homo sapiens, UniProt P29274, H250N).
Experiment [2] deals with Adenosine receptor A2a (Homo sapiens, UniProt P29274, V84L).
The target in experiment [3] is Adenosine receptor A2a (Homo sapiens, UniProt P29274).
Chain of Adenosine receptor A2a (Homo sapiens, UniProt P29274) (P29274 whole entry): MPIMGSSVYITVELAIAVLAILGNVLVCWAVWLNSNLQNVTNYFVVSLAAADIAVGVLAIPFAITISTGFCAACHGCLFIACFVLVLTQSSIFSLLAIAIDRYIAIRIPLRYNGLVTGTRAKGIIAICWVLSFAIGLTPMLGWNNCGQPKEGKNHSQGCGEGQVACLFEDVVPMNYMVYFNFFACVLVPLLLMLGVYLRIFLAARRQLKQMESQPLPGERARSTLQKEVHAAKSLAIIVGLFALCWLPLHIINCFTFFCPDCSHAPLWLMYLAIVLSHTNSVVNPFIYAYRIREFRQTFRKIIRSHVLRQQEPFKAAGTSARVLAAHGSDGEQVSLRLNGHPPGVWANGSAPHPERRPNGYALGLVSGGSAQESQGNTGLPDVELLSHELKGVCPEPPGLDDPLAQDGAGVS
Description: Binding affinity for HA-tagged wild type human Adenosine A2A receptor (WT) using [3H]CGS-21680 as radioligand expressed in COS-7 cells

Chain of Adenosine receptor A2a (Homo sapiens, UniProt P29274, H250N) (P29274 whole entry H250N): as the sequence (P29274 whole entry) above, with H250N counted along it
Chain of Adenosine receptor A2a (Homo sapiens, UniProt P29274, V84L) (P29274 whole entry V84L): as the sequence (P29274 whole entry) above, with V84L counted along it

Consider `CCOC(=O)c1sc(SCc2ccccc2)c2c1CCCC2=O`, for which the figures for the inhibitory constant (Ki) at Adenosine receptor A2a [1], on Adenosine receptor A2a [2] and at Adenosine receptor A2a [3] were 54.3 µM, 72.6 µM and 106 µM, respectively.
As for `COC(=O)C1=C(C)NC(C)=C(C(=O)OC)C1c1ccccc1[N+](=O)[O-]` [NIFEDIPINE], the Ki was 22.2 µM at Adenosine receptor A2a [1], 22.2 µM on Adenosine receptor A2a [2] and 244 µM on Adenosine receptor A2a [3].
With `O=c1c(O)c(-c2ccccc2)oc2cc(O)cc(O)c12` [GALANGIN], the Ki on Adenosine receptor A2a [1] worked out at 33 µM; at Adenosine receptor A2a [2], 18.1 µM; at Adenosine receptor A2a [3] it was 16.7 µM.
For `N=C(N)NC(=O)c1nc(Cl)c(N)nc1N` [AMILORIDE] the same measures were 3.28 µM, 11.6 µM and 12 µM.
Turning to `COc1cc(OC)cc(C(CNc2ncnc3c2ncn3[C@@H]2O[C@H](CO)[C@@H](O)[C@H]2O)c2ccccc2C)c1` (stereo not given in full), the Ki is 0.0359 µM at Adenosine receptor A2a [1], 0.0189 µM at Adenosine receptor A2a [2] and 0.0381 µM on Adenosine receptor A2a [3].
